Laboratory results published in ChEMBL document CHEMBL1142906, “Structure-activity relationships of novel piperazines as antagonists for the melanocortin-4 receptor” (Bioorg Med Chem, 2007).

Target: Melanocortin receptor 4 (Homo sapiens, UniProt P32245)
Test: Displacement of [125I]Nle4-D-Phe7-alpha-MSH from human MC4 receptor expressed in COS1 cells
Type: cell-based, COS-1

Melanocortin receptor 4, sequence (P32245 whole entry): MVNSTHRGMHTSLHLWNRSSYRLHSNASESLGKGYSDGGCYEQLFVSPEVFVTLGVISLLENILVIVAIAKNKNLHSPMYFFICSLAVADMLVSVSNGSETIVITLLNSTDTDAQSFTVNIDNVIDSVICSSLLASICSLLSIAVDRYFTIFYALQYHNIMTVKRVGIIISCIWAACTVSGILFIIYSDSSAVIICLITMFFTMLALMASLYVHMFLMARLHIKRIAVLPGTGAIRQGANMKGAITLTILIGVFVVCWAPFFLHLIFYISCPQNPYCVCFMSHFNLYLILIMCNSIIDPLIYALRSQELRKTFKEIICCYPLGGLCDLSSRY

Compound	IC50
CN1CCN(C(CN2CCN(CCc3ccc4ccccc4c3)CC2)c2ccc(F)cc2)CC1 (racemic)	1.87 µM
CC(C)N1CCN(C(CN2CCN(CCCc3ccc(-c4ccccc4)cc3)CC2)c2ccc(F)cc2)CC1 (racemic)	0.243 µM
CN1CCN(C(CN2CCN(CCc3cccc4ccccc34)CC2)c2ccc(F)cc2)CC1 (racemic)	0.567 µM
CN1CCN(C(CN2CCN(CCCCc3cccc4ccccc34)CC2)c2ccccc2Br)CC1 (racemic)	2.3 µM
Fc1ccc(C(CN2CCN(CCCCc3cccc4ccccc34)CC2)N2CCNCC2)cc1 (racemic)	0.303 µM
CN1CCN(C(CN2CCN(CCCc3cccc4ccccc34)CC2)c2ccc(F)cc2)CC1 (racemic)	0.208 µM
CN1CCN(C(CN2CCN(CCCCc3cccc4ccccc34)CC2)c2ccc([N+](=O)[O-])cc2)CC1 (racemic)	0.263 µM
Cc1ccc(C(CN2CCN(CCCCc3cccc4ccccc34)CC2)N2CCN(C)CC2)cc1 (racemic)	0.296 µM
CN1CCN(C(CN2CCN(CCCCc3ccc4ccccc4c3)CC2)c2ccc(F)cc2)CC1 (racemic)	0.336 µM
CN1CCN(C(CN2CCN(CCCCCCc3cccc4ccccc34)CC2)c2ccc(F)cc2)CC1 (racemic)	0.341 µM
Fc1ccc(C(CN2CCN(CCCCc3cccc4ccccc34)CC2)N2CCN(c3ccccc3)CC2)cc1 (racemic)	> 10 µM
CN1CCN(C(CN2CCN(Cc3cccc4ccccc34)CC2)c2ccc(F)cc2)CC1 (racemic)	0.594 µM
CN1CCN(C(CN2CCN(CCCCc3cccc4ccccc34)CC2)c2cccc(Br)c2)CC1 (racemic)	0.565 µM
CN1CCN(C(CN2CCN(CCCCc3cccc4ccccc34)CC2)c2ccc(N)cc2)CC1 (racemic)	3.59 µM
CN1CCN(C(CN2CCN(CCCc3ccc4ccccc4c3)CC2)c2ccc(F)cc2)CC1 (racemic)	1.19 µM
Fc1ccc(C(CN2CCN(CCCCc3cccc4ccccc34)CC2)N2CCN(C3CCCCC3)CC2)cc1 (racemic)	0.241 µM
CN1CCN(C(CN2CCN(CCCCc3cccc4ccccc34)CC2)c2ccc(-c3ccccc3)cc2)CC1 (racemic)	0.756 µM
CN1CCN(C(CN2CCN(Cc3ccc4ccccc4c3)CC2)c2ccc(F)cc2)CC1 (racemic)	1.25 µM
CN1CCN(C(CN2CCN(CCCCc3cccc4ccccc34)CC2)c2ccc(C(F)(F)F)cc2)CC1 (racemic)	0.226 µM
COc1ccc(CCCCN2CCN(CC(c3ccc(F)cc3)N3CCN(C)CC3)CC2)c2ccccc12 (racemic)	0.228 µM
CN1CCN(C(CN2CCN(CCCCc3cccc4ccccc34)CC2)c2cccc(F)c2)CC1 (racemic)	0.653 µM
COc1ccc(C(CN2CCN(CCCCc3cccc4ccccc34)CC2)N2CCN(C)CC2)cc1 (racemic)	0.871 µM
CN1CCN(C(CN2CCN(CCCCCc3cccc4ccccc34)CC2)c2ccc(F)cc2)CC1 (racemic)	0.218 µM
CN1CCN(C(CN2CCN(CCCCc3cccc4ccccc34)CC2)c2ccccc2)CC1 (racemic)	0.745 µM
CC(C)N1CCN(C(CN2CCN(CCCc3ccccc3-c3ccc(-c4ccccc4)cc3)CC2)c2ccc(F)cc2)CC1 (racemic)	0.228 µM

The next compounds have a lower IC50 than those just listed; values first:

IC50	Compound
0.0828 µM	CCC(CC)N1CCN(C(CN2CCN(CCCCc3c(OC)ccc4ccccc34)CC2)c2ccc(F)cc2)CC1 (racemic)
0.156 µM	CC(C)N1CCN(C(CN2CCN(CCCc3cccc(-c4ccccc4)c3)CC2)c2ccc(F)cc2)CC1 (racemic)
0.159 µM	CN1CCN(C(CN2CCN(CCCCc3cccc4ccccc34)CC2)c2ccc(Br)cc2)CC1 (racemic)
0.132 µM	CN1CCN(C(CN2CCN(CCCCc3cccc4ccccc34)CC2)c2ccc(Cl)cc2)CC1 (racemic)
0.0368 µM	CC(C)N1CCN(C(CN2CCN(CCCCc3c(Br)ccc4ccccc34)CC2)c2ccc(F)cc2)CC1 (racemic)
0.0723 µM	CC(C)N1CCN(C(CN2CCN(CCCCc3cccc4ccccc34)CC2)c2ccc(F)cc2)CC1 (racemic)
0.0368 µM	CC(C)N1CCN(C(CN2CCN(CCCc3ccccc3-c3ccccc3F)CC2)c2ccc(F)cc2)CC1 (racemic)
0.105 µM	CCN1CCN(C(CN2CCN(CCCCc3cccc4ccccc34)CC2)c2ccc(F)cc2)CC1 (racemic)
0.1 µM	CC(C)N1CCN(C(CN2CCN(CCCc3ccccc3-c3ccc(C(C)(C)C)cc3)CC2)c2ccc(F)cc2)CC1 (racemic)
0.147 µM	Fc1ccc(C(CN2CCN(CCCCc3cccc4ccccc34)CC2)N2CCN(C3CC3)CC2)cc1 (racemic)
0.00813 µM	COc1ccc2ccccc2c1CCCCN1CCN(CC(c2ccc(F)cc2)N2CCN(C(C)C)CC2)CC1 (single isomer, unassigned; (-))
0.0925 µM	CC(C)N1CCN(C(CN2CCN(CCCc3ccccc3-c3ccc(N(C)C)cc3)CC2)c2ccc(F)cc2)CC1 (racemic)
0.022 µM	COc1ccc2ccccc2c1CCCCN1CCN(CC(c2ccc(F)cc2)N2CCN(C(C)C)CC2)CC1 (stereo in doubt; (+)-10bg)
0.0859 µM	CC(C)N1CCN(C(CN2CCN(CCCc3ccccc3-c3ccc(OC(F)(F)F)cc3)CC2)c2ccc(F)cc2)CC1 (racemic)
0.0127 µM	COc1ccc2ccccc2c1CCCCN1CCN(CC(c2ccc(F)cc2)N2CCN(C(C)C)CC2)CC1 (racemic)
0.0532 µM	CC(C)N1CCN(C(CN2CCN(CCCc3ccccc3-c3ccc(Cl)cc3)CC2)c2ccc(F)cc2)CC1 (racemic)
0.026 µM	CCOc1ccc2ccccc2c1CCCCN1CCN(CC(c2ccc(F)cc2)N2CCN(C(C)C)CC2)CC1 (racemic)
0.0426 µM	COc1ccc(-c2ccccc2CCCN2CCN(CC(c3ccc(F)cc3)N3CCN(C(C)C)CC3)CC2)cc1 (racemic)
0.022 µM	CC(C)Oc1ccc2ccccc2c1CCCCN1CCN(CC(c2ccc(F)cc2)N2CCN(C(C)C)CC2)CC1 (racemic)
0.131 µM	CC(C)N1CCN(C(CN2CCN(CCCCc3c(O)ccc4ccccc34)CC2)c2ccc(F)cc2)CC1 (racemic)
0.0573 µM	COc1ccc2ccccc2c1CCCCN1CCN(CC(c2ccc(F)cc2)N2CCN(C)CC2)CC1 (racemic)
0.0472 µM	COc1ccc2ccccc2c1CCCCN1CCN(CC(c2ccc(F)cc2)N2CCN(C3CCCC3)CC2)CC1 (racemic)
0.177 µM	CCCN1CCN(C(CN2CCN(CCCCc3cccc4ccccc34)CC2)c2ccc(F)cc2)CC1 (racemic)
0.018 µM	COc1ccc2ccccc2c1CCCCN1CCN(CC(c2ccc(F)cc2)N2CCN(C(C)(C)C)CC2)CC1 (racemic)
0.118 µM	CN1CCN(C(CN2CCN(CCCCc3cccc4ccccc34)CC2)c2ccc(F)cc2)CC1 (racemic)
0.0152 µM	COc1cccc(-c2ccccc2)c1CCCN1CCN(CC(c2ccc(F)cc2)N2CCN(C(C)C)CC2)CC1 (racemic)
0.0418 µM	Cc1ccc(-c2ccccc2CCCN2CCN(CC(c3ccc(F)cc3)N3CCN(C(C)C)CC3)CC2)cc1 (racemic)
0.0651 µM	CC(C)N1CCN(C(CN2CCN(CCCCc3ccccc3-c3ccccc3)CC2)c2ccc(F)cc2)CC1 (racemic)
0.0628 µM	CC(C)N1CCN(C(CN2CCN(CCCc3ccccc3-c3ccc(C(F)(F)F)cc3)CC2)c2ccc(F)cc2)CC1 (racemic)
0.186 µM	CC(C)N1CCN(C(CN2CCN(CCc3ccccc3-c3ccccc3)CC2)c2ccc(F)cc2)CC1 (racemic)
